Reference: patent EP2108954A1, “A test system for detecting intracellular cyclic nucleotide level and methods and uses thereof” (Max-Planck-Gesellschaft zur Förderung der Wissenschaften …, priority 2008, dated 2009)

Columns and labels:
[1] = test system: hCNGA2; experiment: Gs coupling test: hCNGA2 whole-cell current in HEK293 cells; format: cell-based, human
Procedure: HEK293 cells were cultured as described by Wicher and colleagues (Wicher et al., J. Biol. Chem. 281, 3227-36 (2006)). In brief, HEK293 cells were cultured at a density of ∼2*10^4 per 35-mm dish and transfected with 1 µg pcDNA3-DOR22a-GFP and 1 µg pcDNA3-DOR83b-GFP (Neuhaus, et al., Nat. Neurosci. 8, 15-17 (2005); DNAs were a generous gift of Dr. E. Neuhaus and Dr. H. Hatt) using Roti-Fect transfection kit (Roth, Karlsruhe, Germany). In some experiments we transfected cells with pcDNA3-DOR22a-GFP or pcDNA3-DOR83b-GFP alone. We also examined the properties of DOR47a, which was cloned, using standard molecular biology methods into a pcDNA3.1(-) expression vector. To test for putative G-protein coupling, cells were transfected with the respective OR-DNA together with 1.5 µg hHCN2/pcDNA3 (provided by M. Biel, Munich, Germany), with 1 µg hKCNQ4/pcDNA3.1 or with 1 µg hCNGA2/pCMV6-XL4 (Origene, Rockville, MD, USA).
(§1) Ion currents in HEK293 cells were measured with the patch-clamp technology as described (Wicher et al, J. Biol. Chem. 281, 3227-36 (2006)). In brief, ion currents in HEK293 cells were measured at room temperature using whole-cell patch-clamp with appropriate compensation of series resistance and of capacitive currents. Additional experiments were performed in the outside-out configuration. Current measurements and data acquisition were performed using an EPC9 patch-clamp amplifier controlled by PatchMaster software (both HEKA Elektronik, Lambrecht, Germany). Patch-clamp pipettes were fabricated from borosilicate capillaries. Pipettes for whole-cell recordings had resistances of 2-4 MΩ for excised-patch recordings the pipette resistance was up to 15 MΩ.

[2] = molecular target: T1, Or83b (Drosophila melanogaster, UniProt Q9VNB5); experiment: Whole-cell patch-clamp of HEK293 cells expressing Or83b alone; format: cell-based; set-up: expressed in transfected cells; host or cells: HEK293; conditions: HEK293 cells transfected with Or83b alone; whole-cell, -60 mV; n = 6
T1 sequence (Q9VNB5 1-486): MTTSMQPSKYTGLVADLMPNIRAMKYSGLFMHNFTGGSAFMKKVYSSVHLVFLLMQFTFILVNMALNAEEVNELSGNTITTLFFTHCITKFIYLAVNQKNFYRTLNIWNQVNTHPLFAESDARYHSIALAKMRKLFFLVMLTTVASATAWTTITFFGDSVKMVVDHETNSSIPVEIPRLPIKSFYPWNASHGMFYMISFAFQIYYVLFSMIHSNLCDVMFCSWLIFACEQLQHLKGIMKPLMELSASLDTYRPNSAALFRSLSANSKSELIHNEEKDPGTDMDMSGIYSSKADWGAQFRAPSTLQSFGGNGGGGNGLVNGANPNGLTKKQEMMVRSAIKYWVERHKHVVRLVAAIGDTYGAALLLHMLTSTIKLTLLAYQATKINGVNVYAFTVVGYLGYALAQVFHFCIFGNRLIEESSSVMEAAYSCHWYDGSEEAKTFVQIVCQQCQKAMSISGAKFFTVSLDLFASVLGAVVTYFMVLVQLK
Procedure: In some experiments we transfected cells with pcDNA3-DOR22a-GFP or pcDNA3-DOR83b-GFP alone. We also examined the properties of DOR47a, which was cloned, using standard molecular biology methods into a pcDNA3.1(-) expression vector. To test for putative G-protein coupling, cells were transfected with the respective OR-DNA together with 1.5 µg hHCN2/pcDNA3 (provided by M. Biel, Munich, Germany), with 1 µg hKCNQ4/pcDNA3.1 or with 1 µg hCNGA2/pCMV6-XL4 (Origene, Rockville, MD, USA).
as §1, with “In” for “Ion currents in HEK293 cells were measured with the patch-clamp technology as described (Wicher et al, J. Biol. Chem. 281, 3227-36 (2006)). In”
To differentiate between ionotropic and metabotropic pathways of receptor activation (Fig. 2a-d) the pipette solution contained either 2 mM ATP plus 2 mM GTP or 2 mM ADP plus 2 mM GDP (both for whole-cell and outside-out configuration). For the preparation of Cl^--free solutions the chloride salts were substituted by gluconate salts. The pipette Cs^+ solution contained (in mM) 140 CsCl, 1 Mg-ATP, 10 EGTA, 10 HEPES (pH = 7.3), and the Cs^+ bath solution contained (in mM) 140 CsCl, 15 glucose, 15 HEPES (pH = 7.4). The Ca^2+-free bath solution contained (in mM) 140 NaCl, 15 glucose, 15 HEPES, and the Na^+-free bath solution contained (in mM) 140 NMDG-Cl, 10 CaCl2, 10 glucose, 15 HEPES.
With the exception of GDP-γ-S, which was applied via the patch pipette, all substances were applied to the bath using either a bath perfusion system (BPS4 from ALA, New York, USA) or a rapid solution changer (RSC160 from Biologic, Claix, France) which were controlled by the PatchMaster software (HEKA Elektronik).

## CCCC(=O)OCC [Etb, ethyl butyrate]
[1]; cells expressing Or22a plus Or83b or Or22a alone
  effect on CNGA2 current: concentration-dependent rise in CNGA2 current
[1]; cells expressing hCNGA2 and Or22a, -80 mV, n = 5
  Hill coefficient of Etb-induced currents: 0.54
[1]; cells expressing hCNGA2 and Or22a, -80 mV, normalized to controls, n = 5, read-out: EC50 of Etb-induced currents
  EC50: 3 nM
[1]; cells solely expressing CNGA2, Etb 100 nM, forskolin 10 µM, -80 mV
  response of hCNGA2 current: did not respond
[2]
  inward current upon short Etb application: no current was observed
